# Read-outs that look alike come from different tables or passages of the source.
# Columns and labels:
# HL-60 cells = conditions: cited from earlier work
# primary AML = conditions: cited from earlier work
# AML cells = conditions: DKO insensitive to chemotherapy; cited from earlier work
# rats = conditions: up to 400 mg/kg/d p.o. for 30 days; cited from earlier work
# [1] = test system: HT-29 colorectal cell lines; conditions: cited from earlier work
# [2] = Ames; cited from earlier work
# [3] = test system: Walker 256 carcino-sarcoma; conditions: in vivo; cited from earlier work
# ECV304 [4] = conditions: cited from earlier work
# K562 cells = conditions: cited from earlier work
# ECV304 [5] = conditions: cited from earlier work; remark: listed apart in the source
# [6] = test system: human myeloblastic leukemic cells; conditions: cited from earlier work
# cytochrome P450 1A2 [7] = biological target: T1, cytochrome P450 1A2 (Homo sapiens, UniProt P05177); conditions: cited from earlier work
# HUVEC [8] = conditions: cited from earlier work
# Jurkat cells = conditions: inducing phosphorylation of c-Myb; cited from earlier work
# cytochrome P450 2C8 = cytochrome P450 2C8 (Homo sapiens, UniProt P10632); conditions: cited from earlier work
# [9] = test system: hepatic cytochrome P450 (CYP); conditions: hepatic CYP-mediated; cited from earlier work
# murine cancer models = conditions: mouse, in vivo; cited from earlier work
# [10] = test system: malignant cell lines, particularly AML cell lines (MV 4-11, myeloid cell lines); assay: viability of cancer cell lines after meisoindigo treatment; assay type: cell-based; conditions: 0.1-100 μM, 24 and 48 hours
# Description: Viability at 48 hours is shown by (♦); viability at 24 hours is shown by (▪).
# [11] = test system: HT-29 colorectal xenografts; conditions: in vivo; cited from earlier work
# primary AML cells = conditions: cited from earlier work
# HL-60 = conditions: AML; cited from earlier work
# [12] = test system: chronic myelogenous leukemia (CML) patients; conditions: cited from earlier work
# cytochrome P450 1A2 [13] = biological target: T1, cytochrome P450 1A2; conditions: by oxidation; cited from earlier work
# dogs = conditions: 10 mg/kg/d p.o. for 6 months; cited from earlier work
# cytochrome P450 2C19 = cytochrome P450 2C19 (Homo sapiens, UniProt P33261); conditions: by oxidation; cited from earlier work
# HL-60 myeloid cells = conditions: cited from earlier work
# W256 cells = conditions: cited from earlier work
# NB4 = conditions: AML; cited from earlier work
# U937 = conditions: AML; cited from earlier work
# AML NOD/SCID model = conditions: in vivo; cited from earlier work
# AML cell lines = conditions: cited from earlier work
# STK25 = biological target: T2, STK25 (Homo sapiens, UniProt O00506); assay: competition binding kinase scan; conditions: FIGS. 4 and 6
# T2 construct: DNA tag / T7 phage fusion; made in house; host or cells: T7 phage in E. coli (BL21-derived) or HEK-293
# Description: (§1) The scanning procedure is based on a competition binding assay that quantitatively measures the ability of a compound to compete with an immobilized, active-site directed ligand. The assay is performed by combining three components: DNA-tagged kinase; immobilized ligand; and a test compound. The ability of the test compound to compete with the immobilized ligand is measured via quantitative PCR of the DNA tag. This procedure is described in T. A. Carter et al., “Inhibition of Drug-Resistant Mutants of ABL, KIT, and EGF Receptor Kinases,” Proc. Natl. Acad. Sci. USA 102: 11011-11016 (2005), incorporated herein by this reference.
# (§2) Kinase assays were carried out as follows: For most assays, kinase-tagged T7 phage strains were grown in parallel in 24-well blocks in an Escherichia coli host derived from the BL21 strain. E. coli were grown to log-phase and infected with T7 phage from a frozen stock (multiplicity of infection=0.4) and incubated with shaking at 32° C. until lysis (90-150 minutes). The lysates were centrifuged (6,000×g) and filtered (0.2 μm) to remove cell debris. The remaining kinases were produced in HEK-293 cells and subsequently tagged with DNA for qPCR detection. Streptavidin-coated magnetic beads were treated with biotinylated small molecule ligands for 30 minutes at room temperature to generate affinity resins for kinase assays. The liganded beads were blocked with excess biotin and washed with blocking buffer (SeaBlock (Pierce), 1% BSA, 0.05% Tween 20, 1 mM DTT) to remove unbound ligand and to reduce nonspecific phage binding. Binding reactions were assembled by combining kinases, liganded affinity beads, and test compounds in 1× binding buffer (20% SeaBlock, 0.17×PBS, 0.05% Tween 20, 6 mM DTT). Test compounds were prepared as 40×stocks in 100% DMSO and directly diluted into the assay. All reactions were performed in polypropylene 384-well plates in a final volume of 0.04 mL. The assay plates were incubated at room temperature with shaking for 1 hour and the affinity beads were washed with wash buffer (1×PBS, 0.05% Tween 20). The beads were then re-suspended in elution buffer (1×PBS, 0.05% Tween 20, 0.5 μM non-biotinylated affinity ligand) and incubated at room temperature with shaking for 30 minutes. The kinase concentration in the eluates was measured by qPCR.
# (§3) The compounds were screened at the requested concentrations, and results for primary screen binding interactions were reported as “% Ctrl,” where lower numbers indicate stronger hits (i.e., an increased degree of inhibition of kinase activity) as follows (Equation (1)): […]
# ERBB3 = biological target: T3, ERBB3 (Homo sapiens, UniProt P21860); assay: competition binding kinase scan; conditions: FIGS. 4 and 6
# T3 construct: DNA tag / T7 phage fusion; made in house; host or cells: T7 phage in E. coli (BL21-derived) or HEK-293
# Description: as §1, §2, §3
# NEK9 = biological target: T4, NEK9 (Homo sapiens, UniProt Q8TD19); assay: competition binding kinase scan
# T4 construct: DNA tag / T7 phage fusion; made in house; host or cells: T7 phage in E. coli (BL21-derived) or HEK-293
# Description: as §1, §2, §3
# Lewis lung sarcoma = conditions: in vivo; cited from earlier work
# VEGF = conditions: cited from earlier work
# patients = conditions: cited from earlier work
# HUVEC [14] = conditions: cited from earlier work; remark: listed apart in the source
# [15] = biological target: glycogen synthase kinase-3β (GSK-3β) (Homo sapiens, UniProt P49841); conditions: cited from earlier work
# K562 = conditions: CML; cited from earlier work
# [16] = test system: uridine glucuronyltransferases (UGT); conditions: direct conjugation without initial cytochrome P450 oxidation, more polar metabolites; cited from earlier work
# VCAM-1 = conditions: cited from earlier work
# [17] = Chromabs; cited from earlier work
# HT29 = conditions: colorectal cancer; cited from earlier work
# T4 sequence (Q8TD19 whole entry, the tested form may be a part): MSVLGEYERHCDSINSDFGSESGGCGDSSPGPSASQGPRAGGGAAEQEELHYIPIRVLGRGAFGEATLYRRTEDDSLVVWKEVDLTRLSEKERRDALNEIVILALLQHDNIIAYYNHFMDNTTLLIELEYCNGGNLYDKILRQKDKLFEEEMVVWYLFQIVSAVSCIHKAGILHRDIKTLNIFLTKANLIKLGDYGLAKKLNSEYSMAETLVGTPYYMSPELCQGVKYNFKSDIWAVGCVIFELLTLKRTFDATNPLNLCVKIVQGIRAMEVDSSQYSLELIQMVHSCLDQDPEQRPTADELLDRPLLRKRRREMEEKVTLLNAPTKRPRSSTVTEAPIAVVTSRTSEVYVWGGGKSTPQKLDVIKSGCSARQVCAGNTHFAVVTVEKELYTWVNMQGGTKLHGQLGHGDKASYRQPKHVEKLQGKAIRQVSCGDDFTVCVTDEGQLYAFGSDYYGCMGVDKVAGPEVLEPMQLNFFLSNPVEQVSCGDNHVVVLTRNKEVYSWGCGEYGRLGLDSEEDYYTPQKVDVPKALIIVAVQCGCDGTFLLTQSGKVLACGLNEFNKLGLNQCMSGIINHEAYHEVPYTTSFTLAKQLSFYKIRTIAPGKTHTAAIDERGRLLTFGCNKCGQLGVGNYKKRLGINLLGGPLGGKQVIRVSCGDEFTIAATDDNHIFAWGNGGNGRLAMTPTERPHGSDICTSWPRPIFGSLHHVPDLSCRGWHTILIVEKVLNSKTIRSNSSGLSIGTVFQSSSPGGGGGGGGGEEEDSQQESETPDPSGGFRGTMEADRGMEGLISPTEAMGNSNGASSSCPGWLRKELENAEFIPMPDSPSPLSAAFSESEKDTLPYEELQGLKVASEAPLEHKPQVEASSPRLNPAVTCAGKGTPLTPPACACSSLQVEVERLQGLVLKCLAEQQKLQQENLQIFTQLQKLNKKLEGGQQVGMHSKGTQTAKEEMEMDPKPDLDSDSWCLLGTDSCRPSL
# T1 sequence (P05177 whole entry, species assumed): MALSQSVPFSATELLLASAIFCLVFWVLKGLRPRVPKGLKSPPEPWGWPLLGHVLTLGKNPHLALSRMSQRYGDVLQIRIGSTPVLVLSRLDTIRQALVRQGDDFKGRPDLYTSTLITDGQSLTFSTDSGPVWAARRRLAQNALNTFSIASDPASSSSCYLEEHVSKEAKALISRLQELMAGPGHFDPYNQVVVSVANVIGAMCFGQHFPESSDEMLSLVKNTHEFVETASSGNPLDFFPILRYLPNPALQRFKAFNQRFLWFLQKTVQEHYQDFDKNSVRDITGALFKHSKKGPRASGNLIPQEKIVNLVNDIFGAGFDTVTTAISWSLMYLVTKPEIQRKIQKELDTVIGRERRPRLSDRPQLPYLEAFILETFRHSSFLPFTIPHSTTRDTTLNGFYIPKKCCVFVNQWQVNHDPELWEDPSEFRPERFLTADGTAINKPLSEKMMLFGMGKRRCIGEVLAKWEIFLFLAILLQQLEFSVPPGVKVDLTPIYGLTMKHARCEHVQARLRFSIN
# glycogen synthase kinase-3β (GSK-3β), sequence (P49841 whole entry, species assumed): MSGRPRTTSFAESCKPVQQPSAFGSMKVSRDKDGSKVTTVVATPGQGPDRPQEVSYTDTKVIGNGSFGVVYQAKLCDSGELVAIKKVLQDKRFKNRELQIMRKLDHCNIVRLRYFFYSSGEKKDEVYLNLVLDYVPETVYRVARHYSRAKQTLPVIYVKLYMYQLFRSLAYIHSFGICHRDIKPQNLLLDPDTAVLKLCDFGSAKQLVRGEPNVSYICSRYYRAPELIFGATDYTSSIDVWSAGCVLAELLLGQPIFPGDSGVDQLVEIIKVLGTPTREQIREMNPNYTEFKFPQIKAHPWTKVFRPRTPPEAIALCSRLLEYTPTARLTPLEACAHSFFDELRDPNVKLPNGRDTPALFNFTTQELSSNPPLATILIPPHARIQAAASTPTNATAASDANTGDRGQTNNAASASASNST
# T2 sequence (O00506 whole entry, the tested form may be a part): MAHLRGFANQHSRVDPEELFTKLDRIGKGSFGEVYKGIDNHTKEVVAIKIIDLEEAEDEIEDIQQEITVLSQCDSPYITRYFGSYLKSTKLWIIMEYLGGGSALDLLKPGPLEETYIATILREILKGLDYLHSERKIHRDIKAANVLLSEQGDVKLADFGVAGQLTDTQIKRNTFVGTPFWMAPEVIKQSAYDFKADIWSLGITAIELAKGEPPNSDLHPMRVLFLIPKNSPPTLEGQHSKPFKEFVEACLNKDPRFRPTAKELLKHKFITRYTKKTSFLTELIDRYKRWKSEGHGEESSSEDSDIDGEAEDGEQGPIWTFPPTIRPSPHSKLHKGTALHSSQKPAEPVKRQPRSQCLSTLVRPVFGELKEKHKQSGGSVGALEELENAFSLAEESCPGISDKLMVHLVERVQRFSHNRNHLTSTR
# cytochrome P450 2C19, sequence (P33261 whole entry): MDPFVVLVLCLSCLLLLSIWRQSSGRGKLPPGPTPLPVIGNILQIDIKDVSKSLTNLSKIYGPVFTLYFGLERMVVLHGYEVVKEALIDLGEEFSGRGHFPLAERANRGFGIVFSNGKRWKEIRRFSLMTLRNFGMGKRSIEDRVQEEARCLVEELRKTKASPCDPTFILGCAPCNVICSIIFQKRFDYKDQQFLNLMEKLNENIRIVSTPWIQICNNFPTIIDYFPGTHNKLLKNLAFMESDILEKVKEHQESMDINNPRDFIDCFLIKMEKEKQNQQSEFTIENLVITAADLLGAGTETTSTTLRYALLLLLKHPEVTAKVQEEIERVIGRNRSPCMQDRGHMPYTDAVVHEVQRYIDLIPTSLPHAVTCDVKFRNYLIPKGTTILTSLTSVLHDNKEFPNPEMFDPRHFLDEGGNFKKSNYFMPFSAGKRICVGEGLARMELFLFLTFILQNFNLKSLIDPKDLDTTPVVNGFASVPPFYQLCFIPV
# T3 sequence (P21860 20-1342): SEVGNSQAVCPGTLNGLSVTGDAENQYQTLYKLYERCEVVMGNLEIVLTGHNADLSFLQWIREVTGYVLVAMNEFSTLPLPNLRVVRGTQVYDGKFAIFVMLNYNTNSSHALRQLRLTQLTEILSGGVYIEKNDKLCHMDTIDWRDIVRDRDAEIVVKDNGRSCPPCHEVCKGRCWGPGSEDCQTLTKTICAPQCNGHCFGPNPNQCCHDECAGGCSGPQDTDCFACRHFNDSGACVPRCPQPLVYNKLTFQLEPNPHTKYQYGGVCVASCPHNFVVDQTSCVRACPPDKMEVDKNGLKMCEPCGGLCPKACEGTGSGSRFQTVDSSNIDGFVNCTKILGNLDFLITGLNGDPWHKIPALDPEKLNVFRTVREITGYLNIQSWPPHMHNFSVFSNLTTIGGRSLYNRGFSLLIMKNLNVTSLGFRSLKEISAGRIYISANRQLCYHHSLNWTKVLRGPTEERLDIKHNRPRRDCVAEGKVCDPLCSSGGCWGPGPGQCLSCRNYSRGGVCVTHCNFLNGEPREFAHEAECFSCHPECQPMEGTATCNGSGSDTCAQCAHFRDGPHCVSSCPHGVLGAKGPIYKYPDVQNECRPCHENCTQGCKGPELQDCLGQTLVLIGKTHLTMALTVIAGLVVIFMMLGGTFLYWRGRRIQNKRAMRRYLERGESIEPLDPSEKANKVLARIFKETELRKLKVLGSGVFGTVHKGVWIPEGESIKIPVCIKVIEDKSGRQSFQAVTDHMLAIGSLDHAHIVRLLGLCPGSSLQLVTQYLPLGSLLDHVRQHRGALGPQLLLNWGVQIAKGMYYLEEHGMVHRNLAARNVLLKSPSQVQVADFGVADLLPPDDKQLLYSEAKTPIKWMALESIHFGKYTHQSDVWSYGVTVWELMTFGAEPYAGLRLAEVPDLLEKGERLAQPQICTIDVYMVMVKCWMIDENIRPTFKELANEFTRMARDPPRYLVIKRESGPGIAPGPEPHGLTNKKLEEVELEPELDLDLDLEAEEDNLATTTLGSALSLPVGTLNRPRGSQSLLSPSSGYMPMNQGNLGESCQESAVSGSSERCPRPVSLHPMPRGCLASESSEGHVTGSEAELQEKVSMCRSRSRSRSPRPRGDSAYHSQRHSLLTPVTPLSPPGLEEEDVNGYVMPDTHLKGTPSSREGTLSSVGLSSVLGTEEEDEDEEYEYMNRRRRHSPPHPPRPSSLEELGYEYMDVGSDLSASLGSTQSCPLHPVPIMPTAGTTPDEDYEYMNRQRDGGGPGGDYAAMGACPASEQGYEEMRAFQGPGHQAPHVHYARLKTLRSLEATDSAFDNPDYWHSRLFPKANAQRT
# cytochrome P450 2C8, sequence (P10632 whole entry): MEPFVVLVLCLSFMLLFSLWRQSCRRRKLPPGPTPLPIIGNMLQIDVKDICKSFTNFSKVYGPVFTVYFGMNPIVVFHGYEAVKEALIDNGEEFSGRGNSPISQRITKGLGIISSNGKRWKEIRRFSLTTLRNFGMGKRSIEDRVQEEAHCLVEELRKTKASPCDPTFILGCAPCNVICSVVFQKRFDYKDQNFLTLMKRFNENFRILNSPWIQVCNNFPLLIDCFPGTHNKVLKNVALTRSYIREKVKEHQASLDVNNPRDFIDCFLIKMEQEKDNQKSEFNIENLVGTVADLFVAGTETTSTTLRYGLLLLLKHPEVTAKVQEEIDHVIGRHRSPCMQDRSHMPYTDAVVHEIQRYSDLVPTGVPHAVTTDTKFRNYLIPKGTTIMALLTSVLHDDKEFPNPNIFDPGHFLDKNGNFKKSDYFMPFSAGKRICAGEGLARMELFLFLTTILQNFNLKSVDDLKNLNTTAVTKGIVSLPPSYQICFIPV
smiles,measurement,setting,value
"CN1C(=O)/C(=C2/C(=O)Nc3ccccc32)c2ccccc21 [Meisoindigo, 3-(1,2-dihydro-2-oxo-3H-indol-3-ylidene)-1,3-dihydro-1-methyl-2H-indol-2-one]",c-myc,HL-60 cells,decreases
same,β-catenin,HL-60 cells,decreases
same,activity against cells,primary AML,activity
same,Bak,AML cells,upregulation
same,Bax,AML cells,upregulation
same,tolerability,rats,well tolerated
same,cell cycle specific effect,[1],G2/M arrest
same,genotoxicity,[2],not genotoxic
same,efficacy in model,[3],effective
same,apoptosis,ECV304 [4],apoptosis
same,mechanism of apoptosis,K562 cells,novel caspase-dependent pathway
same,activity against cells,ECV304 [5],activity
same,c-myb gene expression,[6],downregulation
same,differentiation,[6],promotes differentiation
same,"inhibition of enzyme, concentration",cytochrome P450 1A2 [7],low micromolar concentrations
same,activity against cells,HUVEC [8],activity
same,Ahi-1,Jurkat cells,upregulation
same,"inhibition of enzyme, concentration",cytochrome P450 2C8,low micromolar concentrations
same,metabolic routes,[9],N-demethylation and mono ring hydroxylation
same,efficacy in model,murine cancer models,effective
same,killing of malignant cell lines (viability),[10],effective in killing
same,efficacy in model,[11],effective
same,Bcl-2,primary AML cells,downregulation
same,p21,primary AML cells,upregulation
same,p27,primary AML cells,upregulation
same,activity against cells,HL-60,activity
same,"complete hematologic response, patients",[12]; 50-200 mg/d p.o.,33%
same,"partial hematologic response, patients",[12]; 50-200 mg/d p.o.,58%
same,"reduction of leukocyte count, median",[12]; 50-200 mg/d p.o.,31 days
same,"reduction of splenomegaly, median",[12]; 50-200 mg/d p.o.,25 days
same,effect of combination with hydroxyurea,[12]; with hydroxyurea,synergistic effect
same,metabolism by enzyme,cytochrome P450 1A2 [13],metabolized
same,tolerability,dogs,well tolerated
same,metabolism by enzyme,cytochrome P450 2C19,metabolized
same,"cleavage of pro-caspase 3, 8, 9 and PARP",HL-60 myeloid cells,stimulates the cleavage
same,DNA and RNA synthesis,W256 cells,inhibition
same,activity against cells,NB4,activity
same,activity against cells,U937,activity
same,spleen size,AML NOD/SCID model,dose-dependent spleen size reduction
same,cell cycle specific effect,AML cell lines,arrest in G(O)/G1
same,binding to kinase,STK25,significant binding
same,binding to kinase,ERBB3,significant binding
same,kinase inhibition in screen,NEK9; FIG. 6,significant inhibition
same,binding to kinase,NEK9; FIGS. 4 and 6,strongest binding
same,efficacy in model,Lewis lung sarcoma,effective
same,VEGF protection,VEGF,decreased
same,"cardiac, hepatic, or renal adverse effects",patients; patients,"no cardiac, hepatic, or renal adverse effects"
same,mild nausea and vomiting,"patients; patients, spontaneously disappeared in two weeks",30%
same,tolerability,"patients; several patient populations, single agent or in combination with chemotherapy",well tolerated
same,tubule formulation,HUVEC [14],decreased
same,concentration at which GSK-3β is inhibited,[15],5 to 50 nM
same,activity against cells,K562,activity
same,metabolism by enzyme,[16],metabolized
same,VCAM-1,VCAM-1,decreased
same,genotoxicity,[17],not genotoxic
same,activity against cells,HT29,activity

# From patent US10383847B2 (priority 2012, dated 2019)
